Measured values: paper PMC8754229 (Journal of Virology, 2022)

Columns and labels:
[1] = target: SARS-CoV-2 M^pro (Severe acute respiratory syndrome coronavirus 2, UniProt P0DTD1); format: biochemical
[2] = statement in Discussion, no test described, ref not given; cited from earlier work

Molecule	Inhibition against M^pro (in words) [1]	Cytotoxicity (in words) [2]
maltopentaose	none of them showed potent inhibition	
CC(=O)O[C@H]1[C@H](OCCc2ccc(O)c(O)c2)O[C@H](CO[C@@H]2O[C@H](CO)[C@@H](O)[C@H](O)[C@H]2O)[C@@H](OC(=O)/C=C/c2ccc(O)c(O)c2)[C@@H]1OC[C@@H]1O[C@@H](C)[C@H](O)[C@@H](O)[C@H]1O [tubuloside A]	none of them showed potent inhibition	
CC(C)=CC[C@@H](O)C1=CC(=O)c2c(O)ccc(O)c2C1=O [Shikonin]		strong cytotoxicity
